Measurements reported in patent publication US20100099652A1, “NOVEL COMPOSITION BASED ON CHOLEST-4-EN-3-ONE OXIME” (TROPHOS, priority 2007, published 2010).
≈ marks a conversion by molar mass, not a printed value.

Columns and labels:
[1] = Stability of cholest-4-en-3-one oxime in different oils (impurities by HPLC UV at 255 nm); format: physicochemical; details: 15 mg/ml, 60° C., 15 days
Experimental: The stability of cholest-4-en-3-one oxime was tested in 12 different oils. The compound is added to the oil at a concentration of 15 mg/ml in the form of micronized powder, and the mixture is placed in an oven at 60° C. for 15 days. […] The major impurity obtained is cholestenone. Other impurities can also appear, certain of which are known (and known to be stable), whereas other impurities appearing are unknown, and the potential toxicity or stability of which is therefore not known.
The product is considered to be very stable (++, very stable) in a given oil if after the incubation for 15 days in the oven at 60° C., the percentage of the measured total area under the curve of the chromatogram obtained corresponding to peaks of degradation products of cholest-4-en-3-one oxime represents less than 1%, and these are known, stable products. The product is considered stable (+, stable) in an oil if after the 15 days spent in the oven at 60° C., the percentage of the measured total area under the curve of the chromatogram obtained corresponding to peaks of degradation products of cholest-4-en-3-one oxime represents less than 1%, but corresponds to unknown degradation products. The product is considered unstable (−, instable) in an oil if after the 15 days spent in the oven at 60° C., the percentage of the measured total area under the curve of the chromatogram obtained corresponding to peaks of degradation products of cholest-4-en-3-one oxime represents more than 1%.

[2] = Maximum solubility of cholest-4-en-3-one oxime in water and in different oils; format: physicochemical

solubility ([2]; castor oil, oil or lipid): < 15 mg/mL
solubility ([2]; cotton oil, oil or lipid): 28 mg/mL (≈ 70.1 mM)
solubility ([2]; ground nut oil, oil or lipid): < 15 mg/mL
solubility ([2]; oil or lipid, Mixture of medium-chain triglycerides (ESTASAN ®, MYGLIOL ®)): 45 mg/mL (≈ 113 mM)
solubility ([2]; olive oil, oil or lipid): 40 mg/mL (≈ 100 mM)
solubility ([2]; rapeseed oil, oil or lipid): < 15 mg/mL
solubility ([2]; sesame oil, oil or lipid): 35 mg/mL (≈ 87.6 mM)
solubility ([2]; soya oil, oil or lipid): 30 mg/mL (≈ 75.1 mM)
solubility ([2]; water): 0.001 mg/mL (≈ 0.0025 mM)
Compound: CC(C)CCC[C@@H](C)[C@H]1CC[C@H]2[C@@H]3CCC4=CC(=NO)CC[C@]4(C)[C@H]3CC[C@]12C [cholest-4-en-3-one oxime]
stability ([1]; Almond oil): − (major instability of the product in the oil tested, with release of more than 1% degradation products, over 2 weeks at 60° C.)
stability ([1]; Caster oil): + (compound which is stable in the oil tested, with release of less than 1% unknown degradation products, over 2 weeks at 60° C.)
stability ([1]; Corn oil): − (major instability of the product in the oil tested, with release of more than 1% degradation products, over 2 weeks at 60° C.)
stability ([1]; Cotton oil): ++ (compound which is very stable in the oil tested, with release of less than 1% stable known degradation products, over 2 weeks at 60° C.)
stability ([1]; Ground nut oil): + (compound which is stable in the oil tested, with release of less than 1% unknown degradation products, over 2 weeks at 60° C.)
stability ([1]; Mixture of medium-chain triglycerides (ESTASAN ®, MYGLIOL ®)): ++ (compound which is very stable in the oil tested, with release of less than 1% stable known degradation products, over 2 weeks at 60° C.)
stability ([1]; Oleic acid): − (major instability of the product in the oil tested, with release of more than 1% degradation products, over 2 weeks at 60° C.)
stability ([1]; Olive oil): ++ (compound which is very stable in the oil tested, with release of less than 1% stable known degradation products, over 2 weeks at 60° C.)
stability ([1]; Rapeseed oil): + (compound which is stable in the oil tested, with release of less than 1% unknown degradation products, over 2 weeks at 60° C.)
stability ([1]; Sesame oil): ++ (compound which is very stable in the oil tested, with release of less than 1% stable known degradation products, over 2 weeks at 60° C.)
stability ([1]; Soya oil): ++ (compound which is very stable in the oil tested, with release of less than 1% stable known degradation products, over 2 weeks at 60° C.)
stability ([1]; Sunflower oil): − (major instability of the product in the oil tested, with release of more than 1% degradation products, over 2 weeks at 60° C.)
